Data taken from patent US4454126A, “Phosphoramide derivatives and medicines containing the same” (priority 1981, dated 1984).

Assays:
[1] = molecular target: T1, urease produced by Proteus mirabilis (Proteus mirabilis, UniProt P17086); experiment: Urease inhibition effects - Proteus mirabilis urease, intact cell; format: cell-based; details: read-out: 50% Urease inhibition conc. I50
T1 construct: intact Proteus mirabilis cells and cell-free preparation
Experimental: (§1) Urease extracted from Jack beans and then purified and urease produced by Proteus mirabilis were used. The molar concentration of the test compound that inhibited 50% of the urease present was determined by the method of Kobashi et al, Biochim. Biophys. Acta, 227, 429-441 (1971), and the method of Okuda et al, Saishin Igaku (The Latest Medical Science) 21(3), 622-627 (1966).

[2] = molecular target: T1, urease produced by Proteus mirabilis; experiment: Urease inhibition effects - Proteus mirabilis urease, cell free; format: biochemical; details: read-out: 50% Urease inhibition conc. I50
Experimental: as §1

Jack bean urease = molecular target: T2, Jack bean urease (Canavalia ensiformis, UniProt P07374); experiment: Urease inhibition effects - Jack bean urease; format: biochemical, Jack beans; details: read-out: 50% Urease inhibition conc. I50
T2 construct: Urease extracted from Jack beans and then purified; from tissue; host or cells: Jack beans
Experimental: as §1

Proteus mirabilis = experiment: Inhibition of the formation of vesical calculi in rats infected with Proteus mirabilis; format: in vivo, Female S.D. rats; details: peroral, five days from four days after inoculation, none: 34.5 ± 2.6 mg
Excerpt: Female S.D. rats weighing about 200 g were inoculated with Proteus mirabilis in their bladders to cause infection. Four days after the inoculation peroral administration of a test compound was begun and the administration was continued for five days. The calculi formed in the bladder in each rat were weighed.

Acute toxicity = format: in vivo, S.D. rats; details: peroral; for LD50: rat, in vivo, po, in 0.5% carboxymethylcellulose
Excerpt: Acute toxicities of test compounds were examined by the peroral administration of the test compounds, suspended in 0.5% carboxymethylcellulose, to male and female S.D. rats (8 weeks old).

[3] = Rate of migration into urine; details: rat, in vivo, po; 50 mg/kg perorally, S.D. rats, urine excreted for 24 hrs; read-out: Rate of migration into urine, Average ± S.E.
Experimental: 50 mg/kg of a test compound was administered perorally to S.D. rats weighing around 200 g. The urease-inhibition capacity of urine excreted for 24 hrs. thereafter was measured. The rate of migration into urine of each test compound was determined by the method of Kobashi et al, Yakugaku Zasshi 93(12), 1564-1572 (1973) and J. Biochim. 83, 287-293 (1973).

T1 sequence (P17086 whole entry): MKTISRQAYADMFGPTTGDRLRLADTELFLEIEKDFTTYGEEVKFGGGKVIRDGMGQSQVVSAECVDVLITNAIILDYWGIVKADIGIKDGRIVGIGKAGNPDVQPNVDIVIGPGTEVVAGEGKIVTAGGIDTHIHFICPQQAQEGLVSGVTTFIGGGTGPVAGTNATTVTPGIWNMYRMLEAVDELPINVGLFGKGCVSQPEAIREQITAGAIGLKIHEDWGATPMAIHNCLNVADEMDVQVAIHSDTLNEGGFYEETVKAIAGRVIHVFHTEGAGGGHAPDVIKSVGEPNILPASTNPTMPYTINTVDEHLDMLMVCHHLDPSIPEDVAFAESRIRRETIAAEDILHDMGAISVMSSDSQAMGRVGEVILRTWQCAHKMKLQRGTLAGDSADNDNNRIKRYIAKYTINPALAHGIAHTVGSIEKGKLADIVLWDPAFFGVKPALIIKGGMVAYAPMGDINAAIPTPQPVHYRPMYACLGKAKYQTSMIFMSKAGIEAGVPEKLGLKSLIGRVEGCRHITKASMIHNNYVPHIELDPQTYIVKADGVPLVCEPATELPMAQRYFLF
T1 sequence (P17088 whole entry, further chain): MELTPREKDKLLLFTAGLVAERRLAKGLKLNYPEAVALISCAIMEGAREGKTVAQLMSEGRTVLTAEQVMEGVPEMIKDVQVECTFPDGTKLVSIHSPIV
T1 sequence (P17087 whole entry, further chain): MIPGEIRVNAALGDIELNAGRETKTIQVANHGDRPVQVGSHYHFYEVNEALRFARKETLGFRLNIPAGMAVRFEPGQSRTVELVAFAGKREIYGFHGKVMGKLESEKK
T2 sequence (P07374 whole entry, looked up): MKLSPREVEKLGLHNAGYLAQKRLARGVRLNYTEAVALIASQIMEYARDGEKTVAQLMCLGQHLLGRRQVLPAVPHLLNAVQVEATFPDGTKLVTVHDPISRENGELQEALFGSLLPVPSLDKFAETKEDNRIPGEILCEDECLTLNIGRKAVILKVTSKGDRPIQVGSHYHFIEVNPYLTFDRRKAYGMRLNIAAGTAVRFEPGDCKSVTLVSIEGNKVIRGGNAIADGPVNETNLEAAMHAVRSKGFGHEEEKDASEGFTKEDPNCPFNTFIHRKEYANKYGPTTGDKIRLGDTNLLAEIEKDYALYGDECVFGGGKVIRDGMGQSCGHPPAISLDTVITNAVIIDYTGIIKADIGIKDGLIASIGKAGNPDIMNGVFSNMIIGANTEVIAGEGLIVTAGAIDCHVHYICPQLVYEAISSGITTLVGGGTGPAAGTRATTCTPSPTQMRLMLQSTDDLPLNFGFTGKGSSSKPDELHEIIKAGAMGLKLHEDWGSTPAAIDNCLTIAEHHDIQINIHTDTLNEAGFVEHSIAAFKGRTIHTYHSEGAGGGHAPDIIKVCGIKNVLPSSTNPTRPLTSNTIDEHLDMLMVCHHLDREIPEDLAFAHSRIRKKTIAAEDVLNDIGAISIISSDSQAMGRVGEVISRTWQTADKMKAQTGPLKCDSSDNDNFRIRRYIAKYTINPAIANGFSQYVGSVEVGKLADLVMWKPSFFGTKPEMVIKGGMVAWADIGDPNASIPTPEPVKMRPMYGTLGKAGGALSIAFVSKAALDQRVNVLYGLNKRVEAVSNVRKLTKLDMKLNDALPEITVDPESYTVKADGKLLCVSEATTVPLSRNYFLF

SMILES	IC50 [1]	IC50 [2]	IC50 (Jack bean urease)	Weight of calculi (Average ± S.E.) (Proteus mirabilis; 12.5 mg/kg per day)	Weight of calculi (Average ± S.E.) (Proteus mirabilis; 50 mg/kg per day)	Acute toxicity, in words (Acute toxicity; S.D. rats)	LD50 (Acute toxicity; female S.D. rats (8 weeks old))	LD50 (Acute toxicity; male S.D. rats (8 weeks old))	dose excreted at 24 h [3]
CC(C)CC(=O)NP(N)(N)=O [Compound C, N-(diaminophosphinyl)-3-methylbutanamide]	68 nM	61 nM	1600 nM	–	–	–	–	–	–
CC(C)CCCC(C)CC(=O)NP(N)(N)=O (stereo not shown) [Compound D, N-(diaminophosphinyl)-3,7-dimethyloctanamide]	14 nM	–	870 nM	–	–	–	–	–	–
CC(C)=CC(=O)NP(N)(N)=O [Compound A, N-(diaminophosphinyl)-3-methyl-2-butenamide]	18 nM	16 nM	630 nM	10.7 ± 3.9 mg	10.9 ± 2.8 mg	only a very low toxitity	> 4240 mg/kg	> 6000 mg/kg	29.6 ± 2.1%
NP(N)(=O)NC(=O)c1ccccc1 [Control Compound, N-(diaminophosphinyl)benzamide, reference compound]	18 nM	13 nM	600 nM	22.5 ± 4.0 mg	–	–	–	–	21 ± 2.7%
CC(=CC(=O)NP(N)(N)=O)CCCC(C)C [Compound B, N-(diaminophosphinyl)-3,7-dimethyl-2-octenamide]	15 nM	16 nM	5200 nM	–	–	–	–	–	–
